Measurements published in patent US20090209535A1, “6-ETHER/THIOETHER-PURINES AS TOPOISOMERASE II CATALYTIC INHIBITORS AND THEIR USE IN THERAPY” (TOPOTARGET A/S, priority 2005, published 2009).

Columns and labels:
[1] = target: T1, bisdioxopiperazine resistant Y165S mutant human topoisomerase II α (Homo sapiens, UniProt P11388, Y165S); format: biochemical; details: FIG. 2-B
T1 construct: made in house; host or cells: yeast (over-expressing yeast cells)
Method: Topoisomerase II catalytic activity (DNA strand passage activity) was measured by using a filter-based kDNA decatenation assay as described in Jensen et al., 2002. Briefly, 200 ng ^3H labelled kDNA isolated from C. fasciculata was incubated with increasing concentrations of drug in 20 μL reaction buffer containing 10 mM TRIS-HCl pH 7.7, 50 mM NaCl, 50 mM KCl, 5 mM MgCl2, 1 mM EDTA, 15 μg/mL BSA and 1 mM ATP using two units of purified wild-type or Y165S mutant topoisomerase II α for 20 minutes at 37° C. (where one unit of activity is defined as the amount of enzyme required for complete decatenation in the absence of drug). After addition of 5× stop buffer (5% Sarkosyl, 0.0025% bromophenol blue, and 50% glycerol), unprocessed kDNA network and decatenated DNA mini-circles were separated by filtering, and the amount of unprocessed kDNA in each reaction was determined by scintillation counting.
Inhibition of human topoisomerase II α DNA strand passage activity was assessed by decatenation of tritium-labelled Crithidia fasiculata kDNA using a filter-based assay to separate unprocessed kDNA network from decatenated mini-circles.

topoisomerase II α [2] = target: T2, topoisomerase II α (Homo sapiens, UniProt P11388); experiment: Topoisomerase II retention on DNA/streptavidin beads (salt-stable complex); format: biochemical; parameters: made in house; host or cells: yeast (over-expressing yeast cells)
Method: An assay capable of measuring non-covalent complexes of topoisomerase II on closed circular DNA was performed as described in Morris et al., 2000, with modifications. When performing six reactions, 60 μL M280 streptavidin coated bead (Dynal A/S, Oslo, Norway) slurry corresponding to 600 μg beads was transferred to a 1.5 mL tube that was then placed in a Dynal MPC-E (magnetic particle concentrator) rack (Dynal A/S, Oslo, Norway) for 1 to 2 minutes until the beads had settled on the tube wall. The beads were then washed twice in the DNA binding solution supplied with the kilobase binding kit (Dynal A/S, Oslo, Norway) by repeating this step. Finally, the beads were re-suspended in 250 μL DNA binding solution. A preparation of biotin labelled plasmid DNA containing a 5-kb super coiled circular DNA molecule carrying 8 successive PNA (Peptide Nucleic Acid) linked biotin labels at one known position (pGeneGrip biotin blank vector, Gene Therapy Systems Inc., San Diego, Calif., USA) was made by mixing 220 μL distilled water and 30 μL biotinylated DNA. After mixing the beads and the DNA preparation, the sample was left overnight at room temperature under gentle agitation to assure optimal formation of the DynaBeads DNA complex. Next, the complex was washed twice in 480 μL wash buffer (10 mM TRIS-HCL, pH 7.5, 2 M NaCl, 1 mM EDTA), once in distilled water, and once in topoisomerase reaction buffer (10 mM TRIS-HCl, pH 7.9, 50 mM NaCl, 50 mM KCl, 5 mM MgCl2, 1 mM EDTA, […] BSA). Then, the beads were re-suspended in 600 μL topoisomerase II buffer and divided into 6 tubes. 100 μL reactions containing plasmid DNA coated DynaBeads, topoisomerase II buffer, 2 μg purified human topoisomerase […] and drugs were incubated for 30 minutes at 37° C. When included, ATP was present at 1 mM. […]
FIG. 7 describes the results of studies of the ability of NSC 35866 to stabilise a salt-stable complex of human topoisomerase II α on covalently closed circular DNA. Retention of salt-stable (to 2 M KCl) complexes of human topoisomerase II α on circular DNA attached to magnetic beads via biotin-streptavidin linkage was determined by eluting retained protein by adding running buffer containing 4% SDS followed by heating to 100° C. for 10 minutes. The amount of human topoisomerase II α protein retained was then determined by running the samples on 7% SDS-PAGE gels followed by straining with GelCode Blue Strain Reagent (Pierce, Rockford, Ill., USA): Lane 1, no drug; Lane 2, 200 μM ICRF-187; Lane 3, 30 μM NSC 35866; Lane 4, 100 μM NSC 35866; Lane 5, 300 μM NSC 35866; Lane 6, 1000 μM NSC 35866; Lane K, 2 μg human topoisomerase II α. […]

topoisomerase II α [3] = target: T2, topoisomerase II α; experiment: Topoisomerase II ATPase assay (coupled, NADH oxidation); format: biochemical; parameters: made in house; host or cells: yeast (over-expressing yeast cells)
Method: The reaction was monitored spectrophotometrically at 340 nm using a Bio-Tek EL808 Ultra Micro plate Reader connected to a computer with KC4 Software installed (Bio-Tek Instruments, U.S.). The change in absorbance was related to ADP production using A340^1M=6220 cm^−1. […] The rate of ATP hydrolysis, V, was determined from the linear part of the curve.
The steady-state rate of ATP hydrolysis was determined using a coupled ATPase assay as described herein. […] Error bars represent SEM of two independent experiments each performed in duplicate.
The steady-state rate of ATP hydrolysis was determined as described in for FIG. 3 and as described herein. In this analysis, the rate of ATP hydrolysis in the absence of drug was set to one in all experiments. Error bars represent SEM of 2 or 3 independent experiments each preformed in duplicate.

topoisomerase II α [4] = target: T2, topoisomerase II α; experiment: Band depletion assay (extractable topoisomerase II α, western blot); format: cell-based; parameters: OC—NYH cells were exposed to increasing concentrations of NSC 35866 for one hour and total proteins were extracted at 0.3 M NaCl; endogenous in cells; host or cells: human small cell lung cancer OC-NYH cells; details: 200 μM, OC—NYH cells, one hour
Method: Band depletion assay was performed essentially as described in Sehested et al., 1998. The amount of extractable topoisomerase II α was detected by the ECL detection method (Amersham, Buckinghamshire, United Kingdom). OC—NYH cells were exposed to increasing concentrations of NSC 35866 for one hour and total proteins were extracted at 0.3 M NaCl. For detection of topoisomerase II α, a polyclonal primary antibody (Bio Trend, Cologne, Germany) was used. Horseradish peroxidase linked anti-rabbit antibody (Amersham, Buckinghamshire, United Kingdom) was used as secondary antibody.
FIG. 10 describes the results of studies of the ability of NSC 35866 to trap human topoisomerase II α as a non-extractable complex on DNA in a dose dependent manner. The ability of NSC 35866 to stabilise topoisomerase II α as a non-extractable complex on DNA in human SCLC OC—NYH cells was assessed using the band depletion assay as described herein. The amounts of topoisomerase II α was visualised by western blotting using a topoisomerase II α specific primary antibody: Lane 1, no drug; Lane 2, 200 μM ICRF-187; Lane 3, 200 μM NSC 35866; Lane 4, 500 μM NSC 35866; Lane 5, 1000 μM NSC 35866. Band depletion of the topoisomerase II α isoform caused by NSC 35866 was detected in two independent experiments.

T2 sequence (P11388 whole entry): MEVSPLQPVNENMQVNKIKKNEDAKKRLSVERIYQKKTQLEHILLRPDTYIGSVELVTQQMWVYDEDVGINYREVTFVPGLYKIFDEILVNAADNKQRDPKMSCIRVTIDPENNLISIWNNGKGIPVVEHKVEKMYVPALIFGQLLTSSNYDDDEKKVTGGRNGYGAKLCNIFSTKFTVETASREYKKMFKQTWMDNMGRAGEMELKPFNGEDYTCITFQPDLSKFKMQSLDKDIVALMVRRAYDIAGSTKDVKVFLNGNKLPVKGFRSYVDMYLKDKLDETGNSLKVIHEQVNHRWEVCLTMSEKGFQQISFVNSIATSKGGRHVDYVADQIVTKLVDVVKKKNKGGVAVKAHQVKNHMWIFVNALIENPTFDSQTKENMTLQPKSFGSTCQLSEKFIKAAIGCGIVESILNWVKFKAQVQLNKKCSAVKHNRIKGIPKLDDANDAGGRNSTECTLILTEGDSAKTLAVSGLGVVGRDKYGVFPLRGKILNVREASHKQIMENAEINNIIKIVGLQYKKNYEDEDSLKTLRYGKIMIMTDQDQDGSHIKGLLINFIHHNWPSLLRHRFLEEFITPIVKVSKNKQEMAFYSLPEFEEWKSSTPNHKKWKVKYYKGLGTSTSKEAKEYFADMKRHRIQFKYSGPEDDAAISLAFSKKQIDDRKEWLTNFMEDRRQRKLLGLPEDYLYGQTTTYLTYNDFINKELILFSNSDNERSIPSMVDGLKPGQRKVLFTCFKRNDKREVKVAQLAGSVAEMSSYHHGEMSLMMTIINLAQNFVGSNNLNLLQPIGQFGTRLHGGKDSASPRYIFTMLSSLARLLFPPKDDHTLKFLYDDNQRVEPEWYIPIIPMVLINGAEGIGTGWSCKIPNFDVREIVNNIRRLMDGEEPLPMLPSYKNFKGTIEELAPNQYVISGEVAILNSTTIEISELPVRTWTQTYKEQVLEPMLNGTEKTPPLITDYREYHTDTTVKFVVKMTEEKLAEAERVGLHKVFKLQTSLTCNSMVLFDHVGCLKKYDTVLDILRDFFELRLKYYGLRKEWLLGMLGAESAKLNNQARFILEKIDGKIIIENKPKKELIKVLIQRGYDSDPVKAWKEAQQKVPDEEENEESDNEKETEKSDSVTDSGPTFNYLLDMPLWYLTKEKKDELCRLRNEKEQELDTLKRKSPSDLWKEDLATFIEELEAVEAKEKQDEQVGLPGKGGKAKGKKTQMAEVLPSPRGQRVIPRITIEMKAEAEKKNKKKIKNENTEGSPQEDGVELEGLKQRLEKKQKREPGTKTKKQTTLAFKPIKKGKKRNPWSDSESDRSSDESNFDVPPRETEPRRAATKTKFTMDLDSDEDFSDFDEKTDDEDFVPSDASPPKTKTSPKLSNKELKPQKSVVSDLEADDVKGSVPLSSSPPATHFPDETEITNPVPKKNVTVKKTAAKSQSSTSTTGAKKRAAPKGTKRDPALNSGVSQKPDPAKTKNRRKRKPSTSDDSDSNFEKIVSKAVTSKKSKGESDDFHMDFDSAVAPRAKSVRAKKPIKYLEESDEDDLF
T1 sequence (P11388 whole entry Y165S): as the sequence (P11388 whole entry) above, with Y165S counted along it

- retention of topoisomerase II on DNA beads, in words (topoisomerase II α [2]; in the absence of ATP): strongly depended on ATP
- ATPase activity relative to that seen in the absence of drug (topoisomerase II α [3]; 100 μM, in the absence of DNA): 75%
- IC50 (topoisomerase II α [3]; in the presence of DNA (DNA-stimulated), read-out: IC50, inhibition of ATPase activity): 1000 nM
- effect on amount of extractable topoisomerase II α, in words (topoisomerase II α [4]): clearly reduced
Structure (SMILES): C[C@@H](CN1CC(=O)NC(=O)C1)N1CC(=O)NC(=O)C1 [ICRF-187, (+)-1,2-bis(3,5-dioxopiperazinyl-1-yl)propane, reference compound]
- inhibition of catalytic activity of the Y165S protein, in words [1]: incapable of inhibiting the catalytic activity of the Y165S protein
- retention of topoisomerase II on DNA beads after 2 M KCl wash, in words (topoisomerase II α [2]; 200 μM, with ATP): strongly induced the retention of topoisomerase II to the beads
